Laboratory results taken from US11390606B2, “Pyridazinone compounds and uses thereof” (Edgewise Therapeutics, Inc., priority 2018, dated 2022).

molecular target: T1, skeletal myofibrils (Rabbit Psoas), myosin ATPase activity; assay: Skeletal Myofibril ATPase Assay; format: biochemical; conditions: skeletal myofibrils (Rabbit Psoas 0.25 mg/mL), PK/LDH-coupled NADH absorbance at 340 nm
T1 construct: Rabbit Psoas Prep 11 (0.25 mg/mL)
Method: Overview: Myosin ATPase activity is assessed by using a coupled reaction system, in which ADP generated by the myosin ATPase function is coupled to the disappearance of NADH through the pyruvate kinase/lactate dehydrogenase (PK-LDH) system. Myosin ATPase activity produces ADP, which is used as a substrate for PK to produce pyruvate and regenerate ATP. The pyruvate is then used as a substrate by LDH to oxidize NADH to NAD+. The rate of the reaction is monitored through the time-dependent disappearance of NADH using absorbance at 340 nm. Inhibition of ATPase activity by the assayed compounds is indicated by a reduced rate of NADH loss, relative to vehicle-treated controls, over the experimental time window. To assess the selectivity of the assayed compounds for skeletal myofibrils, the compounds are counter-screened in cardiac myofibrils.
Materials: The following stock solutions and reagents were used in the Skeletal Myofibril ATPase Assay:
Stock Solutions of pCa buffer. Combine PIPES, CaCl2, and EGTA solutions with 70 mL of water. Adjust pH to 7.0 and bring final volume to 100 mL.
Buffer A & Buffer B. Buffers were stored on ice until use.
Skeletal Myofibril ATPase Assay Procedure: BSA, ATP, NADH, PEP, and DTT solutions were thawed at room temperature, then transferred to ice. Pellet-frozen myofibrils were transferred with approximately twice the required volume into a sufficiently large tube and capped. Myofibrils were thawed by rolling in a water bath for approximately 15 min at room temperature and cooled on ice. Buffers A and B were prepared by adjusting volumes as necessary for required number of wells and stored on ice. 0.5 μL of the compounds to be assayed were added into wells. 25 μL of Buffer A was dispensed into the wells, followed by 25 μL of Buffer B. The wells were measured for absorbance at 340 nm, using a kinetic protocol in which the wells are read every 1.5-2 min for 45 min. The slope of the data was approximated by subtracting the minimum absorbance value from the maximum value for each well. This was accomplished either in the SoftMax Pro software or in a spreadsheet program such as Excel. Using GraphPad Prism 8.0, the data was normalized by assigning a value of 100% to the 1% DMSO vehicle wells. Typically, a normalized 0% value was simply assigned to a (Max−Min) value of 0. The normalized data was fit to a Four Parameter Logistic sigmoidal equation, constraining the bottom to be 0 or greater. Compounds of Table 1 to 4 were tested and results of the assay appear in Table 5 herein. A=IC50 is less than or equal to 10 μM; B=IC50 is greater than 10 μM and less than 100 μM; C=IC50 is greater than 100 μM.

Q: With `CC1(C)Cc2cc(-c3ccc(=O)n(Cc4ccc(Cl)cc4)n3)ccc2O1` [Compound 115, 2-(4-chlorobenzyl)-6-(2,2-dimethyl-2,3-dihydrobenzofuran-5-yl)pyridazin-3(2H)-one] as the molecule, how does the IC50 read?
A: The IC50 was > 100 µM.

Q: With `NC(=O)c1ccc(Cn2nc(-c3ccc(OC(F)F)cc3)ccc2=O)cc1` [Compound 116, 4-((3-(4-(difluoromethoxy)phenyl)-6-oxopyridazin-1(6H)-yl)methyl)benzamide] as the molecule, how does the IC50 read?
A: Its IC50 is > 100 µM.

Q: For `O=c1ccc(-c2ccc3scnc3c2)nn1Cc1ccc(Cl)cc1` [Compound 117, 6-(benzo[d]thiazol-5-yl)-2-(4-chlorobenzyl)pyridazin-3(2H)-one], which IC50 is on record?
A: The IC50 was > 100 µM.

Q: `CN(C)S(=O)(=O)c1ccc(Cn2nc(-c3ccc(OC(F)F)cc3)ccc2=O)cc1` [Compound 118, 4-((3-(4-(difluoromethoxy)phenyl)-6-oxopyridazin-1(6H)-yl)methyl)-N,N-dimethyl-benzenesulfonamide] was tested. Which IC50 did it give?
A: Its IC50 is > 100 µM.

Q: `Cn1ncc2cc(-c3ccc(=O)n(Cc4ccc(Cl)cc4)n3)ccc21` [Compound 119, 2-(4-chlorobenzyl)-6-(1-methyl-1H-indazol-5-yl)pyridazin-3(2H)-one] was tested. Which IC50 did it give?
A: Its IC50 is > 100 µM.

Q: For `CN(C)S(=O)(=O)c1ccc(-c2ccc(=O)n(Cc3ccc(Cl)cc3)n2)cc1` [Compound 120, 4-(1-(4-chlorobenzyl)-6-oxo-1,6-dihydropyridazin-3-yl)-N,N-dimethyl-benzenesulfonamide], which IC50 is on record?
A: Its IC50 is > 100 µM.

Q: For `CC1(C)C(=O)Nc2ccc(-c3ccc(=O)n(Cc4ccc(Cl)cc4)n3)cc21` [Compound 121, 5-(1-(4-chlorobenzyl)-6-oxo-1,6-dihydropyridazin-3-yl)-3,3-dimethylindolin-2-one], which IC50 is on record?
A: Its IC50 is > 100 µM.

Q: For `O=C1Cc2cc(-c3ccc(=O)n(Cc4ccc(Cl)cc4)n3)ccc2N1` [Compound 122, 5-(1-(4-chlorobenzyl)-6-oxo-1,6-dihydropyridazin-3-yl)indolin-2-one], which IC50 is on record?
A: The IC50 was > 100 µM.

Q: `CNc1ccc(-c2ccc(=O)n(Cc3ccc(Cl)cc3)n2)cc1` [Compound 123, 2-(4-chlorobenzyl)-6-(4-(methylamino)phenyl)pyridazin-3(2H)-one] was tested. Which IC50 did it give?
A: Its IC50 is < 10 µM.

Q: `COc1ccc(Cn2nc(-c3ccc(SC)cc3)ccc2=O)cc1` [Compound 201, 2-(4-methoxybenzyl)-6-(4-(methylthio)phenyl)pyridazin-3(2H)-one] was tested. Which IC50 did it give?
A: The IC50 was > 100 µM.

Q: How did the IC50 turn out when `C=Cc1ccc(Cn2nc(-c3ccc(OC)cc3F)ccc2=O)cc1` [Compound 202, 6-(2-fluoro-4-methoxyphenyl)-2-(4-vinylbenzyl)pyridazin-3(2H)-one] was run?
A: The IC50 was > 100 µM.

Q: For `COc1ccc(-c2ccc(=O)n(Cc3ccccc3)n2)cc1` [Compound 211, 2-benzyl-6-(4-methoxyphenyl)pyridazin-3(2H)-one], which IC50 is on record?
A: Its IC50 is < 10 µM.

Q: Which IC50 does the source give for `COc1ccc(-c2ccc(=O)n(Cc3ccc(Cl)cc3)n2)cc1` [Compound 212, 2-(4-chlorobenzyl)-6-(4-methoxyphenyl)pyridazin-3(2H)-one] here?
A: The IC50 was < 10 µM.

Q: How did the IC50 turn out when `CCOc1ccc(-c2ccc(=O)n(Cc3ccc(Cl)cc3)n2)cc1` [Compound 213, 2-(4-chlorobenzyl)-6-(4-ethoxyphenyl)pyridazin-3(2H)-one] was run?
A: The IC50 was < 10 µM.

Q: How did the IC50 turn out when `CCCOc1ccc(-c2ccc(=O)n(Cc3ccc(Cl)cc3)n2)cc1` [Compound 218, 2-(4-chlorobenzyl)-6-(4-propoxyphenyl)pyridazin-3(2H)-one] was run?
A: Its IC50 is < 10 µM.

Q: `COc1ccc(Cn2nc(-c3ccc(Cl)cc3)ccc2=O)cc1` [Compound 235, 6-(4-chlorophenyl)-2-(4-methoxybenzyl)pyridazin-3(2H)-one] was tested. Which IC50 did it give?
A: The IC50 was < 10 µM.

Q: For `Cc1ccc(-c2ccc(=O)n(Cc3ccc(F)cc3)n2)cc1` [Compound 236, 2-(4-fluorobenzyl)-6-(p-tolyl)pyridazin-3(2H)-one], which IC50 is on record?
A: The IC50 was < 10 µM.

Q: Which IC50 does the source give for `COc1ccc(Cn2nc(-c3ccc(Br)cc3)ccc2=O)cc1` [Compound 237, 6-(4-bromophenyl)-2-(4-methoxybenzyl)pyridazin-3(2H)-one] here?
A: Its IC50 is < 10 µM.

Q: `N#Cc1ccc(Cn2nc(-c3ccc(Br)cc3)ccc2=O)cc1` [Compound 238, 4-((3-(4-bromophenyl)-6-oxopyridazin-1(6H)-yl)methyl)benzonitrile] was tested. Which IC50 did it give?
A: Its IC50 is 10 to 100 µM.

Q: How did the IC50 turn out when `O=c1ccc(-c2ccc(Br)cc2)nn1Cc1ccccc1` [Compound 239, 2-benzyl-6-(4-bromophenyl)pyridazin-3(2H)-one] was run?
A: The IC50 was < 10 µM.

Q: Which IC50 does the source give for `COc1ccc(Cn2nc(-c3ccc(F)cc3)ccc2=O)cc1` [Compound 240, 6-(4-fluorophenyl)-2-(4-methoxybenzyl)pyridazin-3(2H)-one] here?
A: The IC50 was 10 to 100 µM.

Q: `O=c1ccc(-c2ccc(F)cc2)nn1Cc1cccc(C(F)(F)F)c1` [Compound 241, 6-(4-fluorophenyl)-2-(3-(trifluoromethyl)benzyl)pyridazin-3(2H)-one] was tested. Which IC50 did it give?
A: Its IC50 is > 100 µM.

Q: Which IC50 does the source give for `O=c1ccc(-c2ccc(F)cc2)nn1Cc1cccc(F)c1` [Compound 242, 2-(3-fluorobenzyl)-6-(4-fluorophenyl)pyridazin-3(2H)-one] here?
A: Its IC50 is < 10 µM.

Q: Which IC50 does the source give for `O=c1ccc(-c2ccc(F)cc2)nn1Cc1ccccc1F` [Compound 243, 2-(2-fluorobenzyl)-6-(4-fluorophenyl)pyridazin-3(2H)-one] here?
A: Its IC50 is 10 to 100 µM.

Q: Which IC50 does the source give for `O=c1ccc(-c2ccc(F)cc2)nn1Cc1ccc(F)cc1` [Compound 244, 2-(4-fluorobenzyl)-6-(4-fluorophenyl)pyridazin-3(2H)-one] here?
A: Its IC50 is 10 to 100 µM.

Q: How did the IC50 turn out when `O=c1ccc(-c2ccc(F)cc2)nn1Cc1ccc(Cl)cc1` [Compound 300, 2-(4-chlorobenzyl)-6-(4-fluorophenyl)pyridazin-3(2H)-one] was run?
A: The IC50 was < 10 µM.

Q: `Cc1ccc(-c2ccc(=O)n(Cc3ccc(Cl)cc3)n2)cc1` [Compound 301, 2-(4-chlorobenzyl)-6-(p-tolyl)pyridazin-3(2H)-one] was tested. Which IC50 did it give?
A: Its IC50 is < 10 µM.

Q: Which IC50 does the source give for `O=c1ccc(-c2ccc(Cl)cc2)nn1Cc1ccccc1` [Compound 302, 2-benzyl-6-(4-chlorophenyl)pyridazin-3(2H)-one] here?
A: The IC50 was < 10 µM.

Q: For `O=c1ccc(-c2ccc(Cl)cc2)nn1Cc1ccc(Cl)cc1` [Compound 303, 2-(4-chlorobenzyl)-6-(4-chlorophenyl)pyridazin-3(2H)-one], which IC50 is on record?
A: Its IC50 is < 10 µM.

Q: `O=c1ccc(-c2ccc(Cl)nc2)nn1Cc1ccc(Cl)cc1` [Compound 304, 2-(4-chlorobenzyl)-6-(6-chloropyridin-3-yl)pyridazin-3(2H)-one] was tested. Which IC50 did it give?
A: The IC50 was < 10 µM.

Q: `O=c1ccc(-c2ccc(Cl)cc2)nn1Cc1ccc(C(F)(F)F)cc1` [Compound 305, 6-(4-chlorophenyl)-2-(4-(trifluoromethyl)benzyl)pyridazin-3(2H)-one] was tested. Which IC50 did it give?
A: The IC50 was > 100 µM.

Q: Which IC50 does the source give for `O=c1ccc(-c2ccc(Cl)cc2)nn1Cc1ccc(F)cc1` [Compound 306, 6-(4-chlorophenyl)-2-(4-fluorobenzyl)pyridazin-3(2H)-one] here?
A: The IC50 was < 10 µM.

Q: With `O=c1ccc(-c2ccc(Cl)cc2)nn1Cc1cccc(Cl)c1` [Compound 307, 2-(3-chlorobenzyl)-6-(4-chlorophenyl)pyridazin-3(2H)-one] as the molecule, how does the IC50 read?
A: Its IC50 is < 10 µM.

Q: For `Cc1ccccc1Cn1nc(-c2ccc(Cl)cc2)ccc1=O` [Compound 308, 6-(4-chlorophenyl)-2-(2-methylbenzyl)pyridazin-3(2H)-one], which IC50 is on record?
A: The IC50 was < 10 µM.

Q: How did the IC50 turn out when `O=c1ccc(-c2ccc(Cl)cc2)nn1Cc1ccccc1F` [Compound 309, 6-(4-chlorophenyl)-2-(2-fluorobenzyl)pyridazin-3(2H)-one] was run?
A: Its IC50 is < 10 µM.

Q: With `O=c1ccc(-c2ccc(Cl)cc2)nn1Cc1ccccc1Cl` [Compound 310, 2-(2-chlorobenzyl)-6-(4-chlorophenyl)pyridazin-3(2H)-one] as the molecule, how does the IC50 read?
A: The IC50 was < 10 µM.

Q: For `Cc1ccc(Cn2nc(-c3ccc(Cl)cc3)ccc2=O)cc1` [Compound 311, 6-(4-chlorophenyl)-2-(4-methylbenzyl)pyridazin-3(2H)-one], which IC50 is on record?
A: Its IC50 is < 10 µM.

Q: How did the IC50 turn out when `CCCc1ccc(-c2ccc(=O)n(Cc3ccc(Cl)cc3)n2)cc1` [Compound 312, 2-(4-chlorobenzyl)-6-(4-propylphenyl)pyridazin-3(2H)-one] was run?
A: The IC50 was < 10 µM.

Q: How did the IC50 turn out when `CCc1ccc(-c2ccc(=O)n(Cc3ccc(Cl)cc3)n2)cc1` [Compound 313, 2-(4-chlorobenzyl)-6-(4-ethylphenyl)pyridazin-3(2H)-one] was run?
A: Its IC50 is < 10 µM.

Q: Which IC50 does the source give for `Cc1cccc(Cn2nc(-c3ccc(Cl)cc3)ccc2=O)c1` [Compound 314, 6-(4-chlorophenyl)-2-(3-methylbenzyl)pyridazin-3(2H)-one] here?
A: The IC50 was < 10 µM.

Q: How did the IC50 turn out when `C[C@@H](c1ccccc1)n1nc(-c2ccc(Cl)cc2)ccc1=O` [Compound 315, (S)-6-(4-chlorophenyl)-2-(1-phenylethyl)pyridazin-3(2H)-one] was run?
A: Its IC50 is > 100 µM.

Q: How did the IC50 turn out when `COc1cc(F)ccc1-c1ccc(=O)n(Cc2ccc(Cl)cc2)n1` [Compound 316, 2-(4-chlorobenzyl)-6-(4-fluoro-2-methoxyphenyl)pyridazin-3(2H)-one] was run?
A: Its IC50 is > 100 µM.
